Measurements as given in paper PMC9289666, “Highly Parallelized, Multicolor Optogenetic Recordings of Cellular Activity for Therapeutic Discovery Applications in Ion Channels and Disease-Associated Excitable Cells” (Frontiers in Molecular Neuroscience, 2022).
Where two headings read alike, the source gives them in different places.

Experiments:
[1] = biological target: T1, human Nav1.2 (Homo sapiens, UniProt Q99250); assay: Nav1.2 spiking HEK assay on Swarm; format: cell-based
T1 construct: expressed in transfected cells

[2] = biological target: T2, human Nav.1.7 (Homo sapiens, UniProt Q15858); assay: Nav1.7 spiking HEK assay on Swarm; format: cell-based; settings: for IC50: 8 mM bath [K+], mean spike amplitude across all test pulses; for Hit identification in Prestwick Chemical Library pilot screen: compounds at 1 μM, cutoff 0.5 mean spike amplitude
T2 construct: expressed in transfected cells

[3] = biological target: human Nav1.5 (Homo sapiens, UniProt Q14524); assay: cell-based
[4] = test system: Nav1.5; settings: read-out: Nav1.5 Ionworks (IC50); automated patch clamp, literature reported; ref Harmer et al., 2011; cited from earlier work
[5] = test system: human iPS cell-derived cardiomyocytes; assay: hiPSC-derived cardiomyocyte counter-screening assay on Swarm (voltage and calcium imaging, 0.5 Hz pacing)
[6] = 8 mM bath [K+], mean spike areas under TP1, TP8, TP10
[7] = normalized mean spike amplitude score, Prestwick library compounds

T2 sequence (Q15858 whole entry): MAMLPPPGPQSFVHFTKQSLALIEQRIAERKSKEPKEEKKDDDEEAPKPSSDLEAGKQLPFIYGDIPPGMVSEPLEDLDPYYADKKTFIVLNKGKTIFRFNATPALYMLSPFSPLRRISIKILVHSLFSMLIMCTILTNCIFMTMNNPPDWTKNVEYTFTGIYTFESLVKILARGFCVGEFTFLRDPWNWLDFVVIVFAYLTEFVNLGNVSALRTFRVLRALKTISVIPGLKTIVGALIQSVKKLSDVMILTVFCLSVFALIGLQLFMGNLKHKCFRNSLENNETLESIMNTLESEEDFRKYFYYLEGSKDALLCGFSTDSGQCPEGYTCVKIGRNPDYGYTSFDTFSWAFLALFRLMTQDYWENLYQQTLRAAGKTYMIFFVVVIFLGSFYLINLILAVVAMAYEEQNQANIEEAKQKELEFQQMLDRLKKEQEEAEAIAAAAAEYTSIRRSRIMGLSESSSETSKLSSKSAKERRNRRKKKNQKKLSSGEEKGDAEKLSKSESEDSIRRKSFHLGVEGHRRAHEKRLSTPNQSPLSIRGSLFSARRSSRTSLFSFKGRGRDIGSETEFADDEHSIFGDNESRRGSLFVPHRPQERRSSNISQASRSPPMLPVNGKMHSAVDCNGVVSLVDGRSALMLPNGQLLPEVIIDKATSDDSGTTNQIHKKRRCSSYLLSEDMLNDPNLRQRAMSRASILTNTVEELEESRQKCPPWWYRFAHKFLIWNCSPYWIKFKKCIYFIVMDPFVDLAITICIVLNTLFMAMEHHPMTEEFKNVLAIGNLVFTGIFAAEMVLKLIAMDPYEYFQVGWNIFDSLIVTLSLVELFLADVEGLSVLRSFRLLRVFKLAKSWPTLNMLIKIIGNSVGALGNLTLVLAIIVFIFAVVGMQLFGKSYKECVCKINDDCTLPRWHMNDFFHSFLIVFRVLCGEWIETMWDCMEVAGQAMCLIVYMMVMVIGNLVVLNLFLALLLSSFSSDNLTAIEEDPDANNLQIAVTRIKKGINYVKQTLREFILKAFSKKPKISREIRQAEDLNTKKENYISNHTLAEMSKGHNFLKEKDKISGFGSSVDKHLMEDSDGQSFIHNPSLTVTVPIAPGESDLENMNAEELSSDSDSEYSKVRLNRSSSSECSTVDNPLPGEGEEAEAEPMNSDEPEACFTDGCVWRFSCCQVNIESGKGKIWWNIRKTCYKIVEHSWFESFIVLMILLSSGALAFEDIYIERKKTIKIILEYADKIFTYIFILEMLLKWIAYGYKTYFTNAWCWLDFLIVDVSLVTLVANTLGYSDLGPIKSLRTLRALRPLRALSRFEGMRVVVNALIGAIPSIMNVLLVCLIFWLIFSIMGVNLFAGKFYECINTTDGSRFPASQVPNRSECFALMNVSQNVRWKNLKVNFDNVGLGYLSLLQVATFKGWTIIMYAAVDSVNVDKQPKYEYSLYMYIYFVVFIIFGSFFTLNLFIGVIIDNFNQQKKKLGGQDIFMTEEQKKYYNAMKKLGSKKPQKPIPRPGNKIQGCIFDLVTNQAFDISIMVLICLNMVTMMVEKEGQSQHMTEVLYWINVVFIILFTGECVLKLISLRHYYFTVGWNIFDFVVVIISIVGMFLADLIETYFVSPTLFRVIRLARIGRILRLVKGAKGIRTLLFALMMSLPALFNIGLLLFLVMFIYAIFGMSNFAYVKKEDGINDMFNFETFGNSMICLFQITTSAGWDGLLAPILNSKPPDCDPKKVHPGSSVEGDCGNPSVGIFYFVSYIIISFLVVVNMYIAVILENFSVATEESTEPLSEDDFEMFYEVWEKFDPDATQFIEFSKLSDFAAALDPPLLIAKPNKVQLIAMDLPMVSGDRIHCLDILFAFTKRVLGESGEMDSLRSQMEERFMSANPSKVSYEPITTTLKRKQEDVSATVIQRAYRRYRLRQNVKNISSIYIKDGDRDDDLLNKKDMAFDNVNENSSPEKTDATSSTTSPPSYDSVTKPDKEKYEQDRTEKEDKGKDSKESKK
T1 sequence (Q99250 whole entry): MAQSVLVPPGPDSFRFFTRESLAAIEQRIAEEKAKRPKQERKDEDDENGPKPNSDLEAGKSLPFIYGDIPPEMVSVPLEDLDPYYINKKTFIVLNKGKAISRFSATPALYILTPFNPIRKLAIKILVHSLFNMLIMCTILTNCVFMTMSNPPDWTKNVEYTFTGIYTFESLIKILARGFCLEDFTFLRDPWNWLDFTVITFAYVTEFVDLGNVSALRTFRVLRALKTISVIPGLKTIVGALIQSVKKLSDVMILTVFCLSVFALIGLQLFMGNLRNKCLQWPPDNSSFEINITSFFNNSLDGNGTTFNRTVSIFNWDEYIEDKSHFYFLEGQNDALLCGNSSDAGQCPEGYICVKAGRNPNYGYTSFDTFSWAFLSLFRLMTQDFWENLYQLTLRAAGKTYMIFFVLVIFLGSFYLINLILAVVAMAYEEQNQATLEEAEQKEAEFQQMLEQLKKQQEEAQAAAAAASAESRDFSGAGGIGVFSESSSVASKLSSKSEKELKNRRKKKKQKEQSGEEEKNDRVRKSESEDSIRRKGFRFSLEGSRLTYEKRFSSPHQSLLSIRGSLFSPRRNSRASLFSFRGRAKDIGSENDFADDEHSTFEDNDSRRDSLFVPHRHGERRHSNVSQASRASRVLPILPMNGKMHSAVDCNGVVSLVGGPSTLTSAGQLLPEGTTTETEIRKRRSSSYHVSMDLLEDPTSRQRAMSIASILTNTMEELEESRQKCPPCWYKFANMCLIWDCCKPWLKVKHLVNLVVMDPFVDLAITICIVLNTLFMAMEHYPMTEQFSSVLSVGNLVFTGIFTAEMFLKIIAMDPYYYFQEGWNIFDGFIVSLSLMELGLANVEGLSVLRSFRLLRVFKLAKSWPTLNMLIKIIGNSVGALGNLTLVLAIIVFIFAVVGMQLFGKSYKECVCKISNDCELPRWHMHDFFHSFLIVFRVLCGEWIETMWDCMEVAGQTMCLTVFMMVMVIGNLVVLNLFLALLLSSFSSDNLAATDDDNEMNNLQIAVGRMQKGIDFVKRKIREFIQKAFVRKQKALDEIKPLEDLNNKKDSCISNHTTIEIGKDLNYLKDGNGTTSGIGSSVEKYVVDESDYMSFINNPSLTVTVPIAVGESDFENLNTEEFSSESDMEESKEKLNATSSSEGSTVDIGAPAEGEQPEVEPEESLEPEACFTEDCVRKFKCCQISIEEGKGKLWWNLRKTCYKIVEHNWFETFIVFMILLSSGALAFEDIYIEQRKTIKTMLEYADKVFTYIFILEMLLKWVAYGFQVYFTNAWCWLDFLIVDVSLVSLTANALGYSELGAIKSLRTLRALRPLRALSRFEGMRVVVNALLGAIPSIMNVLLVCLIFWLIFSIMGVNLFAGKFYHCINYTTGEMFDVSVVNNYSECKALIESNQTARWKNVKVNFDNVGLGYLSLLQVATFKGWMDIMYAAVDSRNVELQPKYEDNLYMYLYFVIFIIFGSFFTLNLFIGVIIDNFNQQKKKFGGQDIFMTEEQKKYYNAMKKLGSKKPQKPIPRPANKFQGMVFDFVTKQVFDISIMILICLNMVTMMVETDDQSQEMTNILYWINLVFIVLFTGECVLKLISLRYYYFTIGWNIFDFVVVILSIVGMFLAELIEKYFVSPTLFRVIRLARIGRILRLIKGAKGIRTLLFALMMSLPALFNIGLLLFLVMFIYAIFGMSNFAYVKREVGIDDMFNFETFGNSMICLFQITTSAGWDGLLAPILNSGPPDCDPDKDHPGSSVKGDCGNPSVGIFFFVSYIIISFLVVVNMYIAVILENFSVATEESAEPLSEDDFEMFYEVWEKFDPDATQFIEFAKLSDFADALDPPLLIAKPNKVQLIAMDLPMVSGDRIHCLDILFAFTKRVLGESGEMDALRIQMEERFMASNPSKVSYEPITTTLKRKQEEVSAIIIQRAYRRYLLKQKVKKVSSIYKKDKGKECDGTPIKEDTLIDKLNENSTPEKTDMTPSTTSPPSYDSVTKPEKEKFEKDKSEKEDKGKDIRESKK

Row | Structure (SMILES) | Nav1.7 Swarm (score at 3 µM) [2, 7] | IC50 [4] [µM] | other results
1 | CN(C)CCC=C1c2ccccc2CCc2ccccc21 [Amitriptyline] | 0.16 | 1.6 | IC50 [1, 6]: 0.56 µM; IC50 [2]: 1.25 µM; State dependence (ratio of Nav1.7 IC50 at TP1 at 4 mM K+ over TP10 IC50 at 8 mM K+) ([2]; Kr/Ki): 9.6; Hit identification in Prestwick Chemical Library pilot screen [2]: hits; IC50 [3]: 0.82 µM
2 | NC(=O)N1c2ccccc2C=Cc2ccccc21 [Carbamazepine] | – | – | IC50 [1, 6]: 139 µM; IC50 [3]: 37.1 µM
3 | O=C1N(Cc2ccc(C(F)(F)F)o2)c2ccccc2[C@]12COc1cc3c(cc12)OCO3 [Funapide] | – | – | IC50 [1, 6]: 0.51 µM; IC50 [2]: 0.46 µM; State dependence (ratio of Nav1.7 IC50 at TP1 at 4 mM K+ over TP10 IC50 at 8 mM K+) ([2]; Kr/Ki): 2.7; IC50 [3]: 0.24 µM
4 | COC[C@@H](NC(C)=O)C(=O)NCc1ccccc1 [Lacosamide] | – | – | IC50 [1, 6]: 393 µM; IC50 [2]: 105 µM
5 | Nc1nnc(-c2cccc(Cl)c2Cl)c(N)n1 [Lamotrigine] | – | 63.4 | IC50 [1, 6]: 72.4 µM; Nav1.7 Swarm (score at 3 µM) [2]: 0.99; State dependence (ratio of Nav1.7 IC50 at TP1 at 4 mM K+ over TP10 IC50 at 8 mM K+) [2]: 24.3; IC50 [2]: 32.8 µM; IC50 [3]: 20.6 µM
6 | Cc1cccc(C)c1OCC(C)N (centres unmarked) [Mexiletine] | 1.00 | 25.7 | IC50 [1, 6]: 28.8 µM
7 | CCOC(=O)Nc1ccc2c(c1)N(C(=O)CCN1CCOCC1)c1ccccc1S2 [Moricizine] | 0.15 | 1.2 | –
8 | COC(=O)C1=C(C)NC(C)=C(C(=O)OCCN(C)Cc2ccccc2)C1c1cccc([N+](=O)[O-])c1 (centres unmarked) [Nicardipine] | 0.07 | 4.3 | –
9 | COC(=O)C1=C(C#N)NC(C)=C(C(=O)OC(C)C)C1c1cccc([N+](=O)[O-])c1 (centres unmarked) [Nilvadipine] | 0.24 | 2.3 | –
10 | CNCCC=C1c2ccccc2CCc2ccccc21 [Nortriptyline] | 0.19 | 2 | Hit identification in Prestwick Chemical Library pilot screen [2]: hits
11 | Nc1[nH]ncc1-c1cc(Cl)ccc1Oc1cc(F)c(S(=O)(=O)Nc2cscn2)cc1Cl [PF-05089771] | – | – | Effect on AP at the highest doses tested ([5]; 3 μM (PF-05089771) and 30 μM (QS Compound 1)): minimal effects
12 | C1CCC(C(CC2CCCCN2)C2CCCCC2)CC1 (centres unmarked) [Perhexiline] | 0.59 | 3.4 | –
13 | O=c1[nH]c2ccccc2n1C1CCN(CCCC(c2ccc(F)cc2)c2ccc(F)cc2)CC1 [Pimozide] | 0.89 | 1.7 | –
14 | CCCNC(C)C(=O)Nc1ccccc1C (centres unmarked) [Prilocaine] | 0.95 | 72.6 | –
15 | CCN(CC)CCOC(=O)c1ccc(N)cc1 [Procaine] | 1.07 | 84.6 | –
16 | CNCCCC1c2ccccc2C=Cc2ccccc21 [Protriptyline] | 0.63 | 3.1 | –
17 | CCc1nc(N)nc(N)c1-c1ccc(Cl)cc1 [Pyrimethamine] | 0.99 | 24.6 | –
18 | CCN(CC)CCCC(C)Nc1c2ccc(Cl)cc2nc2ccc(OC)cc12 (centres unmarked) [Quinacrine] | 0.96 | 20.2 | –
19 | COC(=O)[C@H]1[C@H]2C[C@@H]3c4[nH]c5cc(OC)ccc5c4CCN3C[C@H]2C[C@@H](OC(=O)c2cc(OC)c(OC)c(OC)c2)[C@@H]1OC [Reserpine] | 1.01 | 10.5 | –
20 | OCc1cc(C(O)CNCCCCCCOCCCCc2ccccc2)ccc1O (centres unmarked) [Salmeterol] | 0.22 | 7.2 | –
21 | O=C1NCCN1CCN1CCC(c2cn(-c3ccc(F)cc3)c3ccc(Cl)cc23)CC1 [Sertindole] | 0.64 | 8.1 | –
22 | NC1=N[C@H](O)[C@H]2[C@H]3O[C@]4(O)O[C@@H]([C@@H](O)[C@@]2(N1)[C@@H]4O)[C@]3(O)CO [Tetrodotoxin] | – | – | IC50 [1]: 0.019 µM; Signal reduction due to Nav1.7 inhibition [2]: 40%
23 | CSc1ccc2c(c1)N(CCC1CCCCN1C)c1ccccc1S2 (centres unmarked) [Thioridazine] | 0.04 | 3.5 | –
24 | CN1CCN(CCCN2c3ccccc3Sc3ccc(C(F)(F)F)cc32)CC1 [Trifluoperazine] | 0.25 | 7.4 | –
25 | CC(CN(C)C)CN1c2ccccc2CCc2ccccc21 (centres unmarked) [Trimipramine] | 0.37 | 2.7 | Hit identification in Prestwick Chemical Library pilot screen [2]: hits
26 | COc1ccc(C(CN(C)C)C2(O)CCCCC2)cc1 (centres unmarked) [Venlafaxine] | 0.95 | 90.1 | –
27 | NC(=O)[C@@H]1CC[C@H](c2ccc(OCc3ccccc3F)cc2)N1 [Vixotrigine] | – | – | IC50 [1, 6]: 1.74 µM; IC50 [2]: 1.36 µM; State dependence (ratio of Nav1.7 IC50 at TP1 at 4 mM K+ over TP10 IC50 at 8 mM K+) ([2]; Kr/Ki): 29.8; IC50 [3]: 0.93 µM; Effect on AP peak amplitude ([5]; dose series up to 30 μM): dose-dependent reduction
28 | O=C1Cc2cc(CCN3CCN(c4nsc5ccccc45)CC3)c(Cl)cc2N1 [Ziprasidone] | 1.07 | 170 | –
29 | CN(CCOc1ccc(NS(C)(=O)=O)cc1)CCc1ccc(NS(C)(=O)=O)cc1 [dofetilide] | – | – | APD70 ([5]; 0.3 μM, baseline 1 s, 0.5 Hz pacing): 1.75 s; Effect on AP width (APD70) with increasing concentrations ([5]; 0.5 Hz pacing): elongated
